Measurements taken from ChEMBL document CHEMBL1125024, “Hemoglobin S antigelation agents based on 5-bromotryptophan with potential for sickle cell anemia” (J Med Chem, 1990).
Where a SMILES comes first, the peptide text is derived from it. [ ]: non-standard residue; d: D form. Trp(5-Br) = N[C@@H](Cc1c[nH]c2ccc(Br)cc12)C(=O)O

Species: Homo sapiens
Assay: Inhibitory activity against aggregation of deoxy-HbS using CSAT assay
Assay type: functional

Compound | Slope
N[C@@H](Cc1c[nH]c2ccc(Br)cc12)C(=O)O | 356 g dl-1M-1
N[C@@H](Cc1c[nH]c2ccccc12)C(=O)O | 124 g dl-1M-1
N[C@@H](Cc1c[nH]c2ccccc12)C(=O)N[C@@H](Cc1c[nH]c2ccccc12)C(=O)O (H-Trp-Trp-OH) | 235 g dl-1M-1
N[C@@H](Cc1c[nH]c2ccccc12)C(=O)N[C@@H](Cc1c[nH]c2ccc(Br)cc12)C(=O)O (H-Trp-[Trp(5-Br)]-OH) | 240 g dl-1M-1
N[C@@H](Cc1c[nH]c2ccc(Br)cc12)C(=O)N[C@@H](Cc1c[nH]c2ccccc12)C(=O)O (H-[Trp(5-Br)]-Trp-OH) | 334 g dl-1M-1
N[C@@H](Cc1c[nH]c2ccc(Br)cc12)C(=O)N[C@@H](Cc1c[nH]c2ccc(Br)cc12)C(=O)O (H-[Trp(5-Br)]-[Trp(5-Br)]-OH) | 726 g dl-1M-1
